Test results from patent US10508088B2, “Methods using HDAC11 inhibitors” (FORMA Therapeutics, Inc., priority 2016, dated 2019).

Tests used:
[1] = system: Sox2, Gli1, Yap1 mRNA in H1650 cells; test: QRT-PCR assay for stem cell transcription factors; format: cell-based; settings: H1650, 72 hours
Description: (§1) Given the effects of HDAC11 inhibition on stem-like side population cells, the effects on the expression of stem cell transcription factors was determined using QRT-PCR. A549 or H1650 cells were plated in 60 mm cell culture dishes (120,000 cells). The next day, HDAC11 inhibitors were added at various concentrations and incubated for 72 hours. For the siRNA experiments, A549 cells were plated in 60 mm cell culture dishes (120,000 cells per dish). The siRNAs (Santa Cruz Biotechnologies sc-106896 or ThermoFisher Scientific Cat#4392420) were transfected at a concentration of 100 and 150 pmoles into cells using Oligofectamine reagent (Invitrogen) as per manufacturer's protocol. A non-targeting siRNA (Ambion AM4635) was used as a control for all the transfection experiments. The cells were harvested after 72 hours post transfection. At the end of the treatments, cells were scraped, lysed and total RNA was isolated by RNeasy miniprep kit from Qiagen following the manufacturer's protocol (RNeasy mini kit Cat No. 74104). 1 μg of RNA was converted into cDNA using iScript cDNA synthesis kit (BioRad) in a 20 μl total reaction volume. Levels of mRNA were further analyzed using quantitative real time-PCR (qRT-PCR) that was performed in CFX96 Real time system using BioRad iQ SYBR Green supermix. The reaction was set with 5 μl of SYBR Green, 1 μl of 1 μM Forward primer, 1 μl of 1 μM Reverse primer, 0.5 μl of cDNA and 4.5 μl of water in a total 12 μl reaction. Data was normalized using GAPDH as an internal control and fold change was calculated by 2^−Delta-DeltaCt method. First the Delta-Ct was calculated (Delta-Ct=Ct Gene−Ct GAPDH). Next Delta-Delta-Ct was calculated (Delta-Delta-Ct=Delta-Ct treatment−Delta-Ct control). Finally fold change was calculated by 2^−Delta-DeltaCt.

[2] = system: Sox2, Gli1, Yap1 mRNA in A549 cells; test: QRT-PCR assay for stem cell transcription factors; format: cell-based; settings: A549, 72 hours
Description: as §1

[3] = biological target: HDAC7 (Homo sapiens (Human), UniProt Q8WUI4); test: HDAC inhibition assay, electrophoretic mobility shift (Nanosyn); settings: read-out: HDAC Biochemical IC50 HDAC7
Chain of HDAC7 (Q8WUI4 whole entry): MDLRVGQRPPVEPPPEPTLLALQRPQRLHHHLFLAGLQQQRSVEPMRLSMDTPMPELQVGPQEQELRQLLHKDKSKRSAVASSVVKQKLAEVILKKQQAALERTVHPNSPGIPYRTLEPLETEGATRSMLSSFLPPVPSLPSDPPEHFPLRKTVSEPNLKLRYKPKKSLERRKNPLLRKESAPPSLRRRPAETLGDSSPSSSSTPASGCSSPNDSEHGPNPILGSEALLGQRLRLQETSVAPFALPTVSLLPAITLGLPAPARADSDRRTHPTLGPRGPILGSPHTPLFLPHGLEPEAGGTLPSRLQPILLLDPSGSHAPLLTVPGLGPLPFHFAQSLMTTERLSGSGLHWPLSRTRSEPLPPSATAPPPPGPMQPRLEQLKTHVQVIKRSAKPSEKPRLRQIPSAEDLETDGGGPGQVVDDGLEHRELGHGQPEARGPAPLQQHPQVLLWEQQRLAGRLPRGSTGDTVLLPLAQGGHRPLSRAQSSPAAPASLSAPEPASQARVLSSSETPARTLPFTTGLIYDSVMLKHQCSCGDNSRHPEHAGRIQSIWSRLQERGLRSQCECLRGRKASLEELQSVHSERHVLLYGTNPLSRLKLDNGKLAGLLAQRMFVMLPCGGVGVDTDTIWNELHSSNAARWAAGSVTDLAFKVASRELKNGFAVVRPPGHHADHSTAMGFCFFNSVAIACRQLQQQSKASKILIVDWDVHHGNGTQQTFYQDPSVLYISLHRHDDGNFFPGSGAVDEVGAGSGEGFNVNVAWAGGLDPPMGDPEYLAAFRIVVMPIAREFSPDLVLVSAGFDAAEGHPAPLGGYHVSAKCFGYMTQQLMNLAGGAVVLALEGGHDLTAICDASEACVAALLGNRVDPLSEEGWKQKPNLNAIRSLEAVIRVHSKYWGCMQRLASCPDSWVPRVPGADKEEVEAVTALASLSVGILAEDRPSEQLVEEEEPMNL
Description: This example describes in vitro inhibition properties of exemplary HDAC11 inhibitors for various HDACs. HDAC inhibition assays were performed using an electrophoretic mobility shift assay at Nanosyn, Inc. (Santa Clara, Calif.). Full length human recombinant HDAC proteins were expressed in the baculoviral system and purified by affinity chromatography. A human recombinant HDAC3 was co-expressed with nuclear receptor corepressor (Ncor2). The following peptide substrates were used: FAM-RHKK(Ac)-NH2 for HDAC3, HDAC6 and HDAC8; FITC-H3K27(Ac)-NH2 for HDAC1, HDAC2 and HDAC10; FAM-RHKK(tri-fluor-Ac)-NH2 for HDAC4, HDAC5, HDAC7, HDAC9 and HDAC11. Reactions consisting of compound, enzyme, and substrate were performed in reaction buffer (comprised of 100 mM HEPES, pH7.5, 25 mM KCl, 0.1% bovine serum albumin, 0.01% Triton X-100) at 25° C. and quenched by the addition of termination buffer (100 mM HEPES, pH7.5, 0.01% Triton X-100, 0.05% SDS). The fluorescence intensity of the electrophoretically separated de-acetylated product and substrate peptide were measured and analyzed using the LabChip® 3000 microfluidic electrophoresis instrument (Perkin Elmer/Caliper Life Sciences). The IC50 values of inhibitors were determined by fitting the %-inhibition curves with 4 parameter dose-response model using XLfit 4 software (IDBS).

[4] = system: A549 side population stem-like cells (KRAS mutation); test: Sphere formation assay with stem-like side population NSCLC cells; format: cell-based; settings: A549 SP cells, 0.5-5.0 μM, Day 10
Description: (§2) In order to investigate the role of HDAC11 in the self-renewal of stem-like cancer cells, sphere formation assays were conducted with NSCLC side population (SP) stem-like cells. A549 and NCI-H1650 cells were obtained from the ATCC. Asynchronously growing A549 or NCI-H1650 cells were washed once with phosphate buffered saline (PBS) and harvested using Accutase solution (Sigma Aldrich) and resuspended in DMEM-F12K medium (Gibo, Life Technologies) with 2% fetal bovine serum (FBS) at 1×10^6 cells/ml density. The cells were incubated with 4 μg/ml of Hoechst 33342 dye (Life Technologies) for 90 min at 37° C. in the presence or absence of 1 μM Fumitremorgin C (Sigma-Aldrich) which was used as a control sample to set the gate during sorting. The Hoechst stained cells were sorted using the BD FACSAria cell sorter. The sorted SP cells were plated in 96-well ultra-low adherent plate (Corning Inc) at the cell density of 1000 cells/100 μl/well in stem cell selective medium (DMEM:F12K supplemented with N2 supplement, 10 ng/mL epidermal growth factor (EGF) and 10 ng/ml basic fibroblast growth factor (bFGF) (Sigma-Aldrich) at 37° C. for 7-10 days. The spheres were observed and acquired using EVOS FL microscope system (Life Technologies Inc., USA). The numbers of spheres greater than or equal to 50 μm were counted. To study the effect of the HDAC11 inhibitors, the appropriate concentrations of the compounds were added to the wells on Day 0 and Day 5 and the image acquisition and analysis of the spheres were performed on Day 10. The sphere formation assays were performed twice with triplicates of each treatment in every assay.

[5] = system: H1650 side population stem-like cells (EGFR mutation); test: as above; format: cell-based; settings: H1650 SP cells, 0.5-5.0 μM, Day 10
Description: as §2

[6] = system: A549 cells; test: Cell proliferation assay with combination treatment (MTT); format: cell-based; settings: A549, combination with GDC-0449 (Vismodegib) or BMS-833923, 96 hours
Description: (§3) Selective HDAC11 inhibitors may be useful in combination with other targeted agents, including Jak2 inhibitors and Smoothened inhibitors. The effect of combination with the Smoothened inhibitors GDC-0449 (Vismodegib) and BMS-833923 was tested in lung cancer cell lines. A549 and NCI-H2170 cells were obtained from the ATCC. H2170 is a squamous carcinoma cell line. Cell viability was assessed using MTT reagent (Thiazolyl Blue Tetrazolium Bromide) (Sigma-Aldrich). The cells were grown in 96-well plates at a density of 3000-5000 cells/well in triplicates. The HDAC11 inhibitors were added to the adherent cells at different concentrations and treatment was carried out for 96 hours. After treatments, the cells were incubated with the 1 mg/mL MTT reagent at 37° C. for 1 hour. The reaction was terminated with DMSO that solubilizes the formazan product formed. Absorbance at 590 nm was recorded in a plate reader.

[7] = system: NCI-H2170 cells; test: as above; format: cell-based; settings: H2170, combination with GDC-0449 (Vismodegib) or BMS-833923, 96 hours
Description: as §3

Structure (SMILES) | expression of Gli1 and Yap1 [1] | expression of Sox2 [1] | expression of Gli1 and Yap1 [2] | expression of Sox2 [2] | IC50 [3] | growth of stem-like cancer cells (sphere formation) [4] | growth of stem-like cancer cells (sphere formation) [5] | cell viability, combination with the Smoothened inhibitors [6] | cell viability, combination with the Smoothened inhibitors [7]
O=C(NO)c1cccc(Nc2nc3cc(Cl)c(Cl)cc3o2)c1 [HDTK010, 3-((5,6-dichlorobenzo[d]oxazol-2-yl)amino)-N-hydroxybenzamide] | decreased expression | decreased expression | decreased expression | decreased expression | 5 to 10 µM | prevented growth | prevented growth | decreased cell viability | decreased cell viability
O=C(NO)c1cccc2c1C[C@]1(CCN(Cc3ccc(Cl)c(C(F)(F)F)c3)C1=O)C2 [HDTK054, (S)-1′-(4-chloro-3-(trifluoromethyl)benzyl)-N-hydroxy-2′-oxo-1,3-dihydrospiro[indene-2,3′-pyrrolidine]-4-carboxamide] | decreased expression | decreased expression | decreased expression | decreased expression | > 10 µM | prevented growth | prevented growth | decreased cell viability | decreased cell viability
